Calls of active or inactive are those of the source. No cut-off for these calls is given here.
These compounds were tested on Vesicular stomatitis virus (assay: Antiviral activity against pseudotype VSV harbouring glycoprotein infected in human 293T/ACE2 cells assessed as inhibition of viral infection measured after 48 hrs by luciferase reporter gene assay).
Type: functional, organism-based

Row | Structure (SMILES) | Activity
1 | COc1c(O)c2c(=O)cc(OC)c3c4c(OC)cc(=O)c5c(O)c(OC)c6c(c(c1C[C@](C)(O)[C@H]6C(C)=O)c23)c54 | inactive
2 | COC1=C(CC(C)=O)C(=O)c2c(c(O)cc(OC)c2-c2c(OC)cc(O)c3c2C(=O)C(CC(C)=O)=C(OC)C3=O)C1=O | inactive
3 | COc1c2c3c4c(c(OC)c(=O)c5c(O)cc(OC)c(c6c(OC)cc(O)c(c1=O)c63)c54)[C@@H](C(C)=O)[C@@](C)(O)C2 [HYPOCRELLIN A] | inactive

Reference: ChEMBL document CHEMBL4813952, “Axial Chiral Binaphthoquinone and Perylenequinones from the Stromata of Hypocrella bambusae Are SARS-CoV-2 Entry Inhibitors” (J Nat Prod, 2021)
